Source: patent publication US20250188098A1, “CARBORANE COMPOUNDS AND METHODS OF USE THEREOF” (Ohio State Innovation Foundation, priority 2023, published 2025)
Read-outs that look alike come from different tables or passages of the source.

Tests used:
[1] = Mouse IV pharmacokinetic study; type: in vivo
mERα = molecular target: T1, mERα (Mus musculus, UniProt P19785); test: Predicted mERα activation at uterotrophic dose (simulated Cmax / mERα EC50); details: values >1: peak plasma concentration exceeds concentration to activate mouse ERα
T1 sequence (P19785 1-599): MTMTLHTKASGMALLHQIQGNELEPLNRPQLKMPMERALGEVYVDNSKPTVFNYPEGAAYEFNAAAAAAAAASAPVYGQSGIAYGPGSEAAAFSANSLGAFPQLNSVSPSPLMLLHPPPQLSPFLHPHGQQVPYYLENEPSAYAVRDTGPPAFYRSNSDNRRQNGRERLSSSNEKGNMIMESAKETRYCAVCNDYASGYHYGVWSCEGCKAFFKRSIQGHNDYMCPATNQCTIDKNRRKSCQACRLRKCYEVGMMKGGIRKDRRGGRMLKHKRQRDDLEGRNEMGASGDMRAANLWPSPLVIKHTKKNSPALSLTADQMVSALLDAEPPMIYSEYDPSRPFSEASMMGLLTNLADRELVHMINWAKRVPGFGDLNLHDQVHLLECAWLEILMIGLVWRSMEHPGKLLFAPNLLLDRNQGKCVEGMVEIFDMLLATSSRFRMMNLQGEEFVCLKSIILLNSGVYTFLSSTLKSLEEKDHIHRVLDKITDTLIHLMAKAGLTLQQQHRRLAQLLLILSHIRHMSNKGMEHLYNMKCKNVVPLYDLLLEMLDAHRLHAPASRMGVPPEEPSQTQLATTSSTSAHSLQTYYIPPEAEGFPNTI

[2] = Mouse PO pharmacokinetic study; details: absolute bioavailability, PO 10 mg/kg
hERα [3] = molecular target: T2, hERα (Homo sapiens, UniProt P03372); test: ER luciferase transcriptional activation assay in transfected HEK-293 cells, hERα; type: cell-based; design: expressed in transfected cells; host or cells: HEK-293 (CRL-1573, ATCC), transient transfection with pcDNA3-hERα and pGL4.26-3×ERE; details: transactivation
T2 sequence (P03372 1-595): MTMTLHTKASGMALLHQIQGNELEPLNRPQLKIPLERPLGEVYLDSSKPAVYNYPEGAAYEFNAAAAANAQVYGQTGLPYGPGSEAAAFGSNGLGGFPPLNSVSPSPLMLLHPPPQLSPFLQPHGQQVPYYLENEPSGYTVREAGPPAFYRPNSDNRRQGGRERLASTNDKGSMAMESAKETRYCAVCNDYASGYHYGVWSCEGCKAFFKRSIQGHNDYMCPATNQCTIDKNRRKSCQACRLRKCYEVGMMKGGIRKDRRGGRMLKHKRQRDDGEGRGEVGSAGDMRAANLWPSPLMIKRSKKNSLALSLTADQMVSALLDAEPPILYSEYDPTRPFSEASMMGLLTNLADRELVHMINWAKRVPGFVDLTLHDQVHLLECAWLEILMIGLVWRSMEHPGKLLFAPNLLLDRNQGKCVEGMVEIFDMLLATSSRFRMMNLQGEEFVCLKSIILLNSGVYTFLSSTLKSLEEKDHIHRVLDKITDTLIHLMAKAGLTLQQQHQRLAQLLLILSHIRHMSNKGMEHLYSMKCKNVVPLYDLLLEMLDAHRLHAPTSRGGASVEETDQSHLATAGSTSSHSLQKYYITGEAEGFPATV

ERβ [4] = molecular target: T3, ERβ (Homo sapiens, UniProt Q92731); test: Estrogen receptor radioligand binding assay, hERβ; design: expressed in transfected cells
Method: Estrogen Receptor Radio Ligand Binding Assays. […] Briefly, ERα and ERβ were obtained from recombinant insect Sf9 cells overexpressing either human receptor. [^3H] Estradiol (0.5 nM) and Diethylstilbestrol (1 μM) were used as radio-ligand and ER binding ligand positive controls, respectively. To determine the IC50, each analog was tested at several concentrations depending on the receptor being challenged. The test concentrations ranged from 1 pM-10 μM for ERβ, and 10 pM-100 μM for ERα and were performed in duplicate. The IC50 values were determined by non-linear least squares regression analysis using MathIQ™ (ID Business Solutions Ltd., UK). […] The Hill coefficients of the competition curves were calculated using MathIQ™.
Target sequence in this assay (Q92731 whole entry): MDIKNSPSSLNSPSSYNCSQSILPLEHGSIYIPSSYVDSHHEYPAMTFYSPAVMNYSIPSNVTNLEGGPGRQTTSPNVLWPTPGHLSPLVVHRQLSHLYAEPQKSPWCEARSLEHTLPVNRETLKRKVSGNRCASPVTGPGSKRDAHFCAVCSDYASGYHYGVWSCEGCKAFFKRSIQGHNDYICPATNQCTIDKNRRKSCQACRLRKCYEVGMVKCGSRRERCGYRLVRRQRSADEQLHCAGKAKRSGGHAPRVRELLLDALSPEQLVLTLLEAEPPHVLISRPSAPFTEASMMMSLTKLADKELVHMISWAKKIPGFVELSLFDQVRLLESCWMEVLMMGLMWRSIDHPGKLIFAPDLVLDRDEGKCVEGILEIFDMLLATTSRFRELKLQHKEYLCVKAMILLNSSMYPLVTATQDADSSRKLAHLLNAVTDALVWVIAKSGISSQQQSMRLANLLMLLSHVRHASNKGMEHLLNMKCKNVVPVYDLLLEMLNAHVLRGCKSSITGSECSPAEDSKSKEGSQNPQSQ

hERα [5] = molecular target: T2, hERα; test: Estrogen receptor radioligand binding assay, hERα; details: [3H]estradiol competition, recombinant human receptor from Sf9 cells
mouse ERα = molecular target: T4, mouse ERα (Mus musculus, UniProt P19785); test: ER luciferase transcriptional activation assay in transfected HEK-293 cells, mERα; details: read-out: mERα EC50, nM (95% CI); transactivation, HEK-293
T4 sequence (P19785 1-599): T1 sequence (P19785 1-599)

hERα [6] = molecular target: T2, hERα; test: Predicted hERα activation at uterotrophic dose (simulated Cmax / hERα EC50); details: values >1: peak plasma concentration exceeds concentration to activate hERα
[7] = test system: estrogen-naïve female mice; test: Uterotrophic assay; details: oral once daily for 4 days; dose giving 50% of the uterotrophic effect of estradiol
mouse ERβ = mouse ERβ (Mus musculus, UniProt O08537); test: ER luciferase transcriptional activation assay in transfected HEK-293 cells, mERβ
Sequence of mouse ERβ (O08537 whole entry): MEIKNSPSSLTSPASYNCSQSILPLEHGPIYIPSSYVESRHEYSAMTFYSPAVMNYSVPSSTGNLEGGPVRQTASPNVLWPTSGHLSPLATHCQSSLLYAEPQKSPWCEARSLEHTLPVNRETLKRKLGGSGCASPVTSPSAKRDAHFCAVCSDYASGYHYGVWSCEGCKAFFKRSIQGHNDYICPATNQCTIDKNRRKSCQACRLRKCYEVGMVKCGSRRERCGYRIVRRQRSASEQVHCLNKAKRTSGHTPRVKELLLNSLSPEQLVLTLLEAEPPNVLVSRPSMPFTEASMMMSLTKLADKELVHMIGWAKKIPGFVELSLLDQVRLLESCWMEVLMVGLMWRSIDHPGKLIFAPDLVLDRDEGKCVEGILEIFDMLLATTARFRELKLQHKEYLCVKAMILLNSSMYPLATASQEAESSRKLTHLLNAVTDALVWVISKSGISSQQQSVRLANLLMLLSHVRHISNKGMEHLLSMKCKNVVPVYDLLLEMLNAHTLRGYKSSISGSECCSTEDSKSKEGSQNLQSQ

[8] = Simulated pharmacokinetics at uterotrophic ED50 dose
ERβ [9] = molecular target: T3, ERβ; test: ER luciferase transcriptional activation assay in transfected HEK-293 cells, hERβ
Target sequence in this assay (Q92731 whole entry): as the sequence (Q92731 whole entry) above

ERβ [10] = molecular target: T3, ERβ; details: cited from earlier work
Target sequence in this assay (Q92731 whole entry, species assumed): as the sequence (Q92731 whole entry) above

[11] = mouse; cited from earlier work
[12] = simulated at uterotrophic ED50 oral dose

## 1-(4-hydroxyphenyl)-7-(butyl)-1,7-dicarba-closododecaborane [Compound 6]
[1]
  fold higher IV clearance than OSU-ERβ-12: ~3 fold
mERα
  (Uterotrophic ED50 Cmax)/mERα EC50: 21.6
[2]
  F (%): 1.3%
hERα [3]; read-out: hERα EC50, nM (95% CI), HEK-293
  EC50: 2580 nM
hERα [3]; read-out: hERα EC50, μM (95% CI), as listed in Tables 7A/7B
  EC50: 2600 nM
ERβ [4]; [3H]estradiol competition, recombinant human receptor from Sf9 cells
  Ki: 4 nM
ERβ [4]; ratio of Ki hERα/hERβ
  Binding Selectivity: 4.1
hERα [5]
  Ki: 16.5 nM
Mouse ERα
  EC50: 23.1 nM
hERα [6]
  (Uterotrophic ED50 Cmax)/hERα EC50: 0.2
[7]
  Uterotrophic ED50, mg/kg (95% CI): 24.6 mg/kg
Mouse ERβ; ratio of EC50 mERα/mERβ
  Transactivation Selectivity (mouse): 2.7
Mouse ERβ; read-out: mERβ EC50, nM (95% CI), transactivation, HEK-293
  EC50: 8.6 nM
[8]; simulated at uterotrophic ED50 dose
  fold by which uterotrophic Cmax of OSU-ERβ-12 is higher than that of the analog: 176 fold
[8]; [12]
  Uterotrophic ED50 AUC0-24hr: 1.7 µM·h
  Uterotrophic ED50 Cmax: 500 nM
ERβ [9]; ratio of EC50 hERα/hERβ
  Transactivation Selectivity (human): 74
ERβ [9]; read-out: hERβ EC50, nM (95% CI), transactivation, HEK-293
  EC50: 35 nM

## CCN(CC)CCCC(C)NC(=O)c1ccc2c(c1)C(=O)c1ccccc1C2=O (stereo not drawn) [CIDD-0149897]
ERβ [10]
  selectivity over ERα: 40 fold
ERβ [10]; read-out: ERβ potency EC50
  EC50: 234 nM
[11]
  systemic clearance following an IV dose: 700 mL/h
